# Assay results as given in PubChem BioAssay AID270 (DTP/NCI, 2004).
# Where “and” joins values, the source holds several entries; their conditions need not be identical. Equal values may be shown once. Records with an inconclusive call do not appear.
# Test system: BDF1 mice, s.c. Lewis lung carcinoma, T/C %
# Assay: NCI In Vivo Anticancer Drug Screen. Data for tumor model Lewis Lung Carcinoma (subcutaneous) in B6D2F1 (BDF1) mice
# Summary of the method: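 Transplanted tumors grown in mice; compound vs vehicle dosing; endpoint survival or tumor size; ratio T/C.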
# [1] = endpoint: mean tumor weight, dose: 25.0 mg/kg/injection, schedule: Q01DX011 (ip), vehicle: saline, higher = larger tumour
# [2] = endpoint: mean tumor weight, dose: 50.0 mg/kg/injection, schedule: Q01DX011 (ip), vehicle: saline, higher = larger tumour
# [3] = endpoint: mean tumor weight, dose: 250.0 mg/kg/injection, schedule: Q01DX011 (ip), vehicle: saline, higher = larger tumour
# [4] = endpoint: mean tumor weight, dose: 500.0 mg/kg/injection, schedule: Q01DX011 (ip), vehicle: saline, higher = larger tumour
# [5] = endpoint: median survival time, dose: 50.0 mg/kg/injection, schedule: Q01DX009 (ip), vehicle: Klucel (hydroxypropylcellulose) (HPC), higher = longer survival
# [6] = endpoint: median survival time, dose: 100.0 mg/kg/injection, schedule: Q01DX009 (ip), vehicle: Klucel (hydroxypropylcellulose) (HPC), higher = longer survival
compound,measurement,setting,value
O=C(O)CC(O)(CC(=O)O)C(=O)O.[Ga],T/C,"endpoint: mean tumor weight, dose: 12.5 mg/kg/injection, schedule: Q01DX011 (ip), vehicle: saline, higher = larger tumour",57 % of control
same,T/C,[1],50 % of control
same,T/C,[2],34 % of control
O=CN1CCOCC1,T/C,"endpoint: mean tumor weight, dose: 37.0 mg/kg/injection, schedule: Q01DX011 (ip), vehicle: saline, higher = larger tumour",90 % of control
same,T/C,"endpoint: mean tumor weight, dose: 55.0 mg/kg/injection, schedule: Q01DX011 (ip), vehicle: saline, higher = larger tumour",152 % of control
same,T/C,"endpoint: mean tumor weight, dose: 83.0 mg/kg/injection, schedule: Q01DX011 (ip), vehicle: saline, higher = larger tumour",103 % of control
same,T/C,[3],81 % of control
same,T/C,[4],100 % of control
same,T/C,"endpoint: mean tumor weight, dose: 1000.0 mg/kg/injection, schedule: Q01DX011 (ip), vehicle: saline, higher = larger tumour",92 % of control
Cc1c(C)c2c(c(C)c1O)CCC(C)(CCCC(C)CCCC(C)CCCC(C)C)O2 (centres undefined),T/C,"endpoint: median survival time, dose: 12.5 mg/kg/injection, schedule: Q02DX009 (ip), vehicle: olive oil, sesame oil, peanut oil, higher = longer survival",116 % of control
same,T/C,"endpoint: median survival time, dose: 25.0 mg/kg/injection, schedule: Q02DX009 (ip), vehicle: olive oil, sesame oil, peanut oil, higher = longer survival",100 % of control
same,T/C,"endpoint: median survival time, dose: 50.0 mg/kg/injection, schedule: Q02DX009 (ip), vehicle: olive oil, sesame oil, peanut oil, higher = longer survival",108 % of control
same,T/C,"endpoint: median survival time, dose: 100.0 mg/kg/injection, schedule: Q02DX009 (ip), vehicle: olive oil, sesame oil, peanut oil, higher = longer survival",104 % of control
same,T/C,"endpoint: median survival time, dose: 200.0 mg/kg/injection, schedule: Q02DX009 (ip), vehicle: olive oil, sesame oil, peanut oil, higher = longer survival",122 % of control
same,T/C,"endpoint: median survival time, dose: 400.0 mg/kg/injection, schedule: Q02DX009 (ip), vehicle: olive oil, sesame oil, peanut oil, higher = longer survival",118 % of control
O=C(O)C(O)C(O)C1[O][Sb][O]C1CO (centres undefined),T/C,"endpoint: median survival time, dose: 50.0 mg/kg/injection, schedule: Q01DX009 (ip), vehicle: saline, higher = longer survival",104 % of control
same,T/C,"endpoint: median survival time, dose: 100.0 mg/kg/injection, schedule: Q01DX009 (ip), vehicle: saline, higher = longer survival",102 % of control
C[C@]12C=CC(=O)C=C1CC[C@@H]1[C@@H]2C(=O)C[C@@]2(C)[C@H]1CC[C@]2(O)C(=O)CO,T/C,"endpoint: mean tumor weight, dose: 6.25 mg/kg/injection, schedule: Q01DX011 (sc), vehicle: steriod suspending solution, higher = larger tumour",53 % of control
same,T/C,"endpoint: mean tumor weight, dose: 12.5 mg/kg/injection, schedule: Q01DX011 (sc), vehicle: steriod suspending solution, higher = larger tumour",36 % of control
same,T/C,"endpoint: mean tumor weight, dose: 25.0 mg/kg/injection, schedule: Q01DX011 (sc), vehicle: steriod suspending solution, higher = larger tumour",22 % of control
same,T/C,"endpoint: mean tumor weight, dose: 50.0 mg/kg/injection, schedule: Q01DX011 (sc), vehicle: steriod suspending solution, higher = larger tumour",25 % of control
same,T/C,[5],88 % of control
same,T/C,"endpoint: median survival time, dose: 50.0 mg/kg/injection, schedule: Q01DX009 (ip), vehicle: saline with Tween-80, higher = longer survival",102 % of control and 122 % of control
same,T/C,[6],107 % of control
same,T/C,"endpoint: median tumor weight (est.), dose: 50.0 mg/kg/injection, schedule: Q01DX009 (ip), vehicle: saline with Tween-80, higher = larger tumour",70 % of control
NCCc1ccc(O)c(O)c1,T/C,"endpoint: median survival time, dose: 37.0 mg/kg/injection, schedule: Q01DX009 (ip), vehicle: saline, higher = longer survival",119 % of control
same,T/C,"endpoint: median survival time, dose: 75.0 mg/kg/injection, schedule: Q01DX009 (ip), vehicle: saline, higher = longer survival",109 % of control
same,T/C,"endpoint: median survival time, dose: 150.0 mg/kg/injection, schedule: Q01DX009 (ip), vehicle: saline, higher = longer survival",88 % of control
same,T/C,"endpoint: median survival time, dose: 600.0 mg/kg/injection, schedule: Q01DX009 (ip), vehicle: saline, higher = longer survival",107 % of control
C/C=C1\CNC2Cc3c([nH]c4ccccc34)C(=O)CC1C2C(=O)OC (centres undefined),T/C,[1],88 % of control
same,T/C,[2],97 % of control
same,T/C,"endpoint: mean tumor weight, dose: 100.0 mg/kg/injection, schedule: Q01DX011 (ip), vehicle: saline, higher = larger tumour",84 % of control
CCNCc1cc(Nc2cc(C)nc(/N=C(\N)Nc3ccc(Cl)c(Cl)c3)n2)ccc1OC,T/C,"endpoint: median survival time, dose: 0.8 mg/kg/injection, schedule: Q01DX009 (ip), vehicle: Klucel (hydroxypropylcellulose) (HPC), higher = longer survival",96 % of control
same,T/C,"endpoint: median survival time, dose: 1.56 mg/kg/injection, schedule: Q01DX009 (ip), vehicle: Klucel (hydroxypropylcellulose) (HPC), higher = longer survival",100 % of control
same,T/C,"endpoint: median survival time, dose: 3.12 mg/kg/injection, schedule: Q01DX009 (ip), vehicle: Klucel (hydroxypropylcellulose) (HPC), higher = longer survival",96 % of control
NC(CSC(c1ccccc1)(c1ccccc1)c1ccccc1)C(=O)O (centres undefined),T/C,"endpoint: mean tumor weight, dose: 12.0 mg/kg/injection, schedule: Q01DX011 (ip), vehicle: methylcellulose (MC), higher = larger tumour",115 % of control
same,T/C,"endpoint: median survival time, dose: 8.0 mg/kg/injection, schedule: Q01DX009 (ip), vehicle: Klucel (hydroxypropylcellulose) (HPC), higher = longer survival",120 % of control
same,T/C,"endpoint: median survival time, dose: 32.0 mg/kg/injection, schedule: Q01DX009 (ip), vehicle: Klucel (hydroxypropylcellulose) (HPC), higher = longer survival",112 % of control
CCOc1ccc2nc(S(N)(=O)=O)sc2c1,T/C,"endpoint: mean tumor weight, dose: 25.0 mg/kg/injection, schedule: Q01DX011 (ip), vehicle: carboxymethylcellulose (CMC), higher = larger tumour",79 % of control
same,T/C,"endpoint: mean tumor weight, dose: 50.0 mg/kg/injection, schedule: Q01DX011 (ip), vehicle: carboxymethylcellulose (CMC), higher = larger tumour",122 % of control
same,T/C,"endpoint: mean tumor weight, dose: 100.0 mg/kg/injection, schedule: Q01DX011 (ip), vehicle: carboxymethylcellulose (CMC), higher = larger tumour",38 % of control
O=NN(CCCl)C(=O)NC1CCC(=O)NC1=O (centres undefined),T/C,"endpoint: median survival time, dose: 0.5 mg/kg/injection, schedule: Q01DX009 (ip), vehicle: Klucel (hydroxypropylcellulose) (HPC), higher = longer survival",107 % of control and 110 % of control
same,T/C,"endpoint: median survival time, dose: 1.0 mg/kg/injection, schedule: Q01DX009 (ip), vehicle: Klucel (hydroxypropylcellulose) (HPC), higher = longer survival",100 % of control and 105 % of control
same,T/C,"endpoint: median survival time, dose: 1.25 mg/kg/injection, schedule: Q01DX009 (ip), vehicle: other, higher = longer survival",122 % of control
same,T/C,"endpoint: median survival time, dose: 2.0 mg/kg/injection, schedule: Q01DX009 (ip), vehicle: Klucel (hydroxypropylcellulose) (HPC), higher = longer survival",101 % of control and 117 % of control
same,T/C,"endpoint: median survival time, dose: 2.0 mg/kg/injection, schedule: Q02DX009 (ip), vehicle: saline with Tween-80, higher = longer survival",90 % of control
same,T/C,"endpoint: median survival time, dose: 3.0 mg/kg/injection, schedule: Q02DX009 (ip), vehicle: saline with Tween-80, higher = longer survival",93 % of control
same,T/C,"endpoint: median survival time, dose: 4.0 mg/kg/injection, schedule: Q01DX009 (ip), vehicle: Klucel (hydroxypropylcellulose) (HPC), higher = longer survival",182 % of control
same,T/C,"endpoint: median survival time, dose: 5.0 mg/kg/injection, schedule: Q01DX001 (ip), vehicle: gum acacia, higher = longer survival",89 % of control
same,T/C,"endpoint: median survival time, dose: 5.0 mg/kg/injection, schedule: Q01DX001 (ip), vehicle: other, higher = longer survival",120 % of control
same,T/C,"endpoint: median survival time, dose: 5.0 mg/kg/injection, schedule: Q01DX001 (ip), vehicle: saline, higher = longer survival",96 % of control
same,T/C,"endpoint: median survival time, dose: 6.0 mg/kg/injection, schedule: Q04DX003 (ip), vehicle: saline with Tween-80, higher = longer survival",93 % of control
same,T/C,"endpoint: median survival time, dose: 10.0 mg/kg/injection, schedule: Q01DX001 (ip), vehicle: other, higher = longer survival",107 % of control and 124 % of control
same,T/C,"endpoint: median survival time, dose: 10.0 mg/kg/injection, schedule: Q01DX001 (ip), vehicle: saline with Tween-80, higher = longer survival",111 % of control
same,T/C,"endpoint: median survival time, dose: 10.0 mg/kg/injection, schedule: Q01DX001 (ip), vehicle: saline, higher = longer survival",101 % of control
same,T/C,"endpoint: median survival time, dose: 10.0 mg/kg/injection, schedule: Q04DX003 (ip), vehicle: saline with Tween-80, higher = longer survival",120 % of control
same,T/C,"endpoint: median survival time, dose: 15.0 mg/kg/injection, schedule: Q01DX001 (ip), vehicle: saline with Tween-80, higher = longer survival",108 % of control
same,T/C,"endpoint: median survival time, dose: 22.5 mg/kg/injection, schedule: Q01DX001 (ip), vehicle: saline with Tween-80, higher = longer survival",208 % of control
same,T/C,"endpoint: median survival time, dose: 26.0 mg/kg/injection, schedule: Q01DX001 (ip), vehicle: gum acacia, higher = longer survival",168 % of control
same,T/C,"endpoint: median survival time, dose: 40.0 mg/kg/injection, schedule: Q01DX001 (ip), vehicle: saline, higher = longer survival",156 % of control
same,T/C,"endpoint: median tumor weight (est.), dose: 7.6 mg/kg/injection, schedule: Q01DX001 (ip), vehicle: gum acacia, higher = larger tumour",93 % of control
same,T/C,"endpoint: median tumor weight (est.), dose: 15.0 mg/kg/injection, schedule: Q01DX001 (ip), vehicle: gum acacia, higher = larger tumour",10 % of control
NC(=O)NC1NC(=O)NC1=O (centres undefined),T/C,"endpoint: mean tumor weight, dose: 15.6 mg/kg/injection, schedule: Q01DX011 (ip), vehicle: saline, higher = larger tumour",67 % of control
same,T/C,"endpoint: mean tumor weight, dose: 31.3 mg/kg/injection, schedule: Q01DX011 (ip), vehicle: saline, higher = larger tumour",97 % of control
same,T/C,"endpoint: mean tumor weight, dose: 62.5 mg/kg/injection, schedule: Q01DX011 (ip), vehicle: saline, higher = larger tumour",69 % of control and 76 % of control
same,T/C,"endpoint: mean tumor weight, dose: 125.0 mg/kg/injection, schedule: Q01DX011 (ip), vehicle: saline, higher = larger tumour",106 % of control
same,T/C,[3],103 % of control
same,T/C,[4],101 % of control
O=C1C=CC(=O)c2c(Cl)ccc(O)c21,T/C,"endpoint: median survival time, dose: 0.63 mg/kg/injection, schedule: Q01DX009 (ip), vehicle: Klucel (hydroxypropylcellulose) (HPC), higher = longer survival",100 % of control
same,T/C,"endpoint: median survival time, dose: 1.25 mg/kg/injection, schedule: Q01DX009 (ip), vehicle: Klucel (hydroxypropylcellulose) (HPC), higher = longer survival",104 % of control
same,T/C,"endpoint: median survival time, dose: 2.5 mg/kg/injection, schedule: Q01DX009 (ip), vehicle: Klucel (hydroxypropylcellulose) (HPC), higher = longer survival",102 % of control
same,T/C,"endpoint: median survival time, dose: 5.0 mg/kg/injection, schedule: Q01DX009 (ip), vehicle: Klucel (hydroxypropylcellulose) (HPC), higher = longer survival",98 % of control
O=[N+]([O-])c1ccc(Cl)c2c([N+](=O)[O-])cccc12,T/C,"endpoint: median survival time, dose: 6.25 mg/kg/injection, schedule: Q01DX009 (ip), vehicle: Klucel (hydroxypropylcellulose) (HPC), higher = longer survival",118 % of control
same,T/C,"endpoint: median survival time, dose: 12.5 mg/kg/injection, schedule: Q01DX009 (ip), vehicle: Klucel (hydroxypropylcellulose) (HPC), higher = longer survival",114 % of control
same,T/C,[5],103 % of control
same,T/C,[6],111 % of control
CCN(CC)CCNc1ccc(C)c2sc3ccccc3c(=O)c12,T/C,"endpoint: mean tumor weight, dose: 20.0 mg/kg/injection, schedule: Q01DX011 (ip), vehicle: carboxymethylcellulose (CMC), higher = larger tumour",62 % of control and 65 % of control
same,T/C,"endpoint: mean tumor weight, dose: 40.0 mg/kg/injection, schedule: Q01DX011 (ip), vehicle: carboxymethylcellulose (CMC), higher = larger tumour",51 % of control and 59 % of control
same,T/C,"endpoint: mean tumor weight, dose: 80.0 mg/kg/injection, schedule: Q01DX011 (ip), vehicle: carboxymethylcellulose (CMC), higher = larger tumour",16 % of control
